The text below walks through data of US20170281714A1, “METHOD OF TREATMENT USING L[…] G[…] COOPERATE WITH IL-10 TO MODULATE INFLAMMATORY RESPONSE TRIGGERED IN HIV+ AND TB IMMUNE-C[…] PATIENTS” (Your Energy Systems, LLC, priority 2014, published 2017).

One experiment relates to IL-10. In words: IL-10 secretion by macrophages infected ex vivo with M. Tb H37Rv (FIG. 3; healthy individuals and Type 2 diabetes mellitus). The experiment is classed as cell-based, human. The note with it: NAC supplied in millimolar amounts. An excerpt: FIG. 3 is two bar graphs using various substances or compositions for raising glutathione in macrophages and how macrophages respond to these various methods. On the left is a control graph for healthy individuals. On the right is a graph for individuals affected with Type 2 diabetes mellitus.
The right graph of FIG. 3 depicts the response of macrophages from individuals with Type 2 diabetes mellitus ex vivo, which have been infected with M. Tb strain H37Rv.
Prior to the current invention, no method of lowering IL-10 in individuals with type 1 or type 2 diabetes mellitus has been proposed. Type 1 diabetes is an immune disorder in which the body's immune cells (white blood cells) attack and destroy insulin-producing beta cells in the pancreas. As a result, the body cannot produce insulin and glucose stays and builds up in the blood, where it damages all the organ systems. […] Similar to type 1 diabetes, type 2 causes a build-up of glucose in the blood which damages the body's organ systems. One of the key complications of Type 2 diabetes is prolonged infection and inhibited response to infection and poor wound healing. This Type 2 form of the disease is commonly referred to as adult-onset diabetes. Cytokine levels, such as for IL-10, in plasma samples can be determined by sandwich enzyme linked immunosorbent assay (ELISA) using assay kits from eBioscience (kit named ELISA Ready-Set-Go). […]

In experiment [1] the test system is Mycobacterium tuberculosis. As to conditions: NAC at 10 millimolar; cited from earlier work.

Structures are written as SMILES.

Take `CC(=O)N[C@@H](CS)C(=O)O` [NAC, N-acetyl cysteine]: the “IL-10 level from macrophages in cell culture” value in the experiment with IL-10 is recorded as “reduce to normal”. The “M. tuberculosis CFU/ml in macrophages” value in experiment [1] was 8,000 CFU/ml.
